{
  "source": "the NIST ThermoML archive (doi:10.1021/je0496995)",
  "test": "mn = molality of the nth substance listed, in mol/kg",
  "conditions": "Liquid; for viscosity: 101.3 kPa, Capillary tube (Ostwald / Ubbelohde) method; for mass density: 101.33 kPa, Pycnometric method",
  "note": "± gives the expanded uncertainty stated by the source.",
  "data": [
    {"smiles": "O=C(O)c1cccnc1", "note": "[3-carboxylpyridine] + Cc1cccnc1", "values": [
      {"measurement": "viscosity", "setting": "293.15 K, m1 = 0.02469", "value": "0.9504 ± 0.013", "unit": "mPa·s"},
      {"measurement": "viscosity", "setting": "293.15 K, m1 = 0.107", "value": "0.9659 ± 0.013", "unit": "mPa·s"},
      {"measurement": "viscosity", "setting": "293.15 K, m1 = 0.2134", "value": "0.9908 ± 0.013", "unit": "mPa·s"},
      {"measurement": "viscosity", "setting": "293.15 K, m1 = 0.319", "value": "1.015 ± 0.014", "unit": "mPa·s"},
      {"measurement": "viscosity", "setting": "293.15 K, m1 = 0.424", "value": "1.05 ± 0.014", "unit": "mPa·s"},
      {"measurement": "viscosity", "setting": "293.15 K, m1 = 0.5284", "value": "1.107 ± 0.015", "unit": "mPa·s"},
      {"measurement": "mass density", "setting": "293.15 K, m1 = 0.02469", "value": "956.7 ± 0.5", "unit": "kg/m3"},
      {"measurement": "mass density", "setting": "293.15 K, m1 = 0.107", "value": "959.5 ± 0.5", "unit": "kg/m3"},
      {"measurement": "mass density", "setting": "293.15 K, m1 = 0.2134", "value": "964.1 ± 0.5", "unit": "kg/m3"},
      {"measurement": "mass density", "setting": "293.15 K, m1 = 0.319", "value": "969.5 ± 0.5", "unit": "kg/m3"},
      {"measurement": "mass density", "setting": "293.15 K, m1 = 0.424", "value": "975.8 ± 0.5", "unit": "kg/m3"},
      {"measurement": "mass density", "setting": "293.15 K, m1 = 0.5284", "value": "983 ± 0.5", "unit": "kg/m3"},
      {"measurement": "viscosity", "setting": "303.15 K, m1 = 0.02469", "value": "0.8363 ± 0.011", "unit": "mPa·s"},
      {"measurement": "viscosity", "setting": "303.15 K, m1 = 0.107", "value": "0.8514 ± 0.011", "unit": "mPa·s"},
      {"measurement": "viscosity", "setting": "303.15 K, m1 = 0.2134", "value": "0.8764 ± 0.012", "unit": "mPa·s"},
      {"measurement": "viscosity", "setting": "303.15 K, m1 = 0.319", "value": "0.9018 ± 0.012", "unit": "mPa·s"},
      {"measurement": "viscosity", "setting": "303.15 K, m1 = 0.424", "value": "0.9368 ± 0.013", "unit": "mPa·s"},
      {"measurement": "viscosity", "setting": "303.15 K, m1 = 0.5284", "value": "0.9891 ± 0.013", "unit": "mPa·s"},
      {"measurement": "mass density", "setting": "303.15 K, m1 = 0.02469", "value": "947.3 ± 0.5", "unit": "kg/m3"},
      {"measurement": "mass density", "setting": "303.15 K, m1 = 0.107", "value": "950.1 ± 0.5", "unit": "kg/m3"},
      {"measurement": "mass density", "setting": "303.15 K, m1 = 0.2134", "value": "954.6 ± 0.5", "unit": "kg/m3"},
      {"measurement": "mass density", "setting": "303.15 K, m1 = 0.319", "value": "960 ± 0.5", "unit": "kg/m3"},
      {"measurement": "mass density", "setting": "303.15 K, m1 = 0.424", "value": "966.4 ± 0.5", "unit": "kg/m3"},
      {"measurement": "mass density", "setting": "303.15 K, m1 = 0.5284", "value": "973.5 ± 0.6", "unit": "kg/m3"},
      {"measurement": "viscosity", "setting": "313.15 K, m1 = 0.02469", "value": "0.7399 ± 0.01", "unit": "mPa·s"},
      {"measurement": "viscosity", "setting": "313.15 K, m1 = 0.107", "value": "0.7553 ± 0.01", "unit": "mPa·s"},
      {"measurement": "viscosity", "setting": "313.15 K, m1 = 0.2134", "value": "0.7804 ± 0.01", "unit": "mPa·s"},
      {"measurement": "viscosity", "setting": "313.15 K, m1 = 0.319", "value": "0.8048 ± 0.011", "unit": "mPa·s"},
      {"measurement": "viscosity", "setting": "313.15 K, m1 = 0.424", "value": "0.8396 ± 0.011", "unit": "mPa·s"},
      {"measurement": "viscosity", "setting": "313.15 K, m1 = 0.5284", "value": "0.8961 ± 0.012", "unit": "mPa·s"},
      {"measurement": "mass density", "setting": "313.15 K, m1 = 0.02469", "value": "938.4 ± 0.5", "unit": "kg/m3"},
      {"measurement": "mass density", "setting": "313.15 K, m1 = 0.107", "value": "941.2 ± 0.5", "unit": "kg/m3"},
      {"measurement": "mass density", "setting": "313.15 K, m1 = 0.2134", "value": "945.7 ± 0.5", "unit": "kg/m3"},
      {"measurement": "mass density", "setting": "313.15 K, m1 = 0.319", "value": "951 ± 0.5", "unit": "kg/m3"},
      {"measurement": "mass density", "setting": "313.15 K, m1 = 0.424", "value": "957.5 ± 0.5", "unit": "kg/m3"},
      {"measurement": "mass density", "setting": "313.15 K, m1 = 0.5284", "value": "964.7 ± 0.6", "unit": "kg/m3"},
      {"measurement": "viscosity", "setting": "323.15 K, m1 = 0.02469", "value": "0.661 ± 0.0089", "unit": "mPa·s"},
      {"measurement": "viscosity", "setting": "323.15 K, m1 = 0.107", "value": "0.6762 ± 0.0092", "unit": "mPa·s"},
      {"measurement": "viscosity", "setting": "323.15 K, m1 = 0.2134", "value": "0.7014 ± 0.0095", "unit": "mPa·s"},
      {"measurement": "viscosity", "setting": "323.15 K, m1 = 0.319", "value": "0.7265 ± 0.0099", "unit": "mPa·s"},
      {"measurement": "viscosity", "setting": "323.15 K, m1 = 0.424", "value": "0.7613 ± 0.01", "unit": "mPa·s"},
      {"measurement": "viscosity", "setting": "323.15 K, m1 = 0.5284", "value": "0.8173 ± 0.011", "unit": "mPa·s"},
      {"measurement": "mass density", "setting": "323.15 K, m1 = 0.02469", "value": "929 ± 0.5", "unit": "kg/m3"},
      {"measurement": "mass density", "setting": "323.15 K, m1 = 0.107", "value": "931.8 ± 0.5", "unit": "kg/m3"},
      {"measurement": "mass density", "setting": "323.15 K, m1 = 0.2134", "value": "936.3 ± 0.5", "unit": "kg/m3"},
      {"measurement": "mass density", "setting": "323.15 K, m1 = 0.319", "value": "941.5 ± 0.5", "unit": "kg/m3"},
      {"measurement": "mass density", "setting": "323.15 K, m1 = 0.424", "value": "947.8 ± 0.5", "unit": "kg/m3"},
      {"measurement": "mass density", "setting": "323.15 K, m1 = 0.5284", "value": "955.2 ± 0.6", "unit": "kg/m3"},
      {"measurement": "viscosity", "setting": "333.15 K, m1 = 0.02469", "value": "0.5981 ± 0.0081", "unit": "mPa·s"},
      {"measurement": "viscosity", "setting": "333.15 K, m1 = 0.107", "value": "0.6134 ± 0.0083", "unit": "mPa·s"},
      {"measurement": "viscosity", "setting": "333.15 K, m1 = 0.2134", "value": "0.6381 ± 0.0087", "unit": "mPa·s"},
      {"measurement": "viscosity", "setting": "333.15 K, m1 = 0.319", "value": "0.6632 ± 0.009", "unit": "mPa·s"},
      {"measurement": "viscosity", "setting": "333.15 K, m1 = 0.424", "value": "0.6983 ± 0.0095", "unit": "mPa·s"},
      {"measurement": "viscosity", "setting": "333.15 K, m1 = 0.5284", "value": "0.7541 ± 0.01", "unit": "mPa·s"},
      {"measurement": "mass density", "setting": "333.15 K, m1 = 0.02469", "value": "920 ± 0.5", "unit": "kg/m3"},
      {"measurement": "mass density", "setting": "333.15 K, m1 = 0.107", "value": "922.8 ± 0.5", "unit": "kg/m3"},
      {"measurement": "mass density", "setting": "333.15 K, m1 = 0.2134", "value": "927.2 ± 0.5", "unit": "kg/m3"},
      {"measurement": "mass density", "setting": "333.15 K, m1 = 0.319", "value": "932.5 ± 0.5", "unit": "kg/m3"},
      {"measurement": "mass density", "setting": "333.15 K, m1 = 0.424", "value": "938.7 ± 0.6", "unit": "kg/m3"},
      {"measurement": "mass density", "setting": "333.15 K, m1 = 0.5284", "value": "946.2 ± 0.6", "unit": "kg/m3"},
      {"measurement": "viscosity", "setting": "343.15 K, m1 = 0.02469", "value": "0.5434 ± 0.0074", "unit": "mPa·s"},
      {"measurement": "viscosity", "setting": "343.15 K, m1 = 0.107", "value": "0.5594 ± 0.0076", "unit": "mPa·s"},
      {"measurement": "viscosity", "setting": "343.15 K, m1 = 0.2134", "value": "0.5833 ± 0.008", "unit": "mPa·s"},
      {"measurement": "viscosity", "setting": "343.15 K, m1 = 0.319", "value": "0.6086 ± 0.0083", "unit": "mPa·s"},
      {"measurement": "viscosity", "setting": "343.15 K, m1 = 0.424", "value": "0.6431 ± 0.0088", "unit": "mPa·s"},
      {"measurement": "viscosity", "setting": "343.15 K, m1 = 0.5284", "value": "0.6997 ± 0.0096", "unit": "mPa·s"},
      {"measurement": "mass density", "setting": "343.15 K, m1 = 0.02469", "value": "911 ± 0.5", "unit": "kg/m3"},
      {"measurement": "mass density", "setting": "343.15 K, m1 = 0.107", "value": "913.8 ± 0.5", "unit": "kg/m3"},
      {"measurement": "mass density", "setting": "343.15 K, m1 = 0.2134", "value": "918.2 ± 0.5", "unit": "kg/m3"},
      {"measurement": "mass density", "setting": "343.15 K, m1 = 0.319", "value": "923.5 ± 0.6", "unit": "kg/m3"},
      {"measurement": "mass density", "setting": "343.15 K, m1 = 0.424", "value": "929.7 ± 0.6", "unit": "kg/m3"},
      {"measurement": "mass density", "setting": "343.15 K, m1 = 0.5284", "value": "937.2 ± 0.6", "unit": "kg/m3"}
    ]}
  ]
}
